Measured values taken from patent US20090093423A2, “NOVEL 2-SUBSTITUTED METHYL PENAM DERIVATIVES” (Orchid Chemicals and Pharmaceuticals Limited, priority 2006, published 2009).

How the values were obtained:
[1] = tested on: C. freundii 12301; test: MIC, Agar Dilution Method; format: cell-based; settings: inhibitor 1 μg/mL
Method: (§1) The novel compounds were tested for the in vitro antibacterial activities by the Agar Dilution Method as specified in documents published by NCCLS, now CLSI, USA. (National Committee for Clinical Laboratory Standards (NCCLS). 2003. Approved standard M7-A6. NCCLS, Villanova, Pa.).
(§2) Tazo was also dissolved in same buffer to get a solution of, e.g., 1 mg/mL. Novel penam derivatives described herein were dissolved in water to get a solution of, e.g., 1 mg/mL.
(§3) The novel compounds and Tazo were also tested individually. The bacterial inoculum was prepared by picking 3 to 5 well-isolated bacterial colonies with the same morphological appearance from an 18-24 h old culture and adjusting the turbidity of the saline suspension to 0.5 McFarland Turbidity Standard equivalent to a bacterial population of 1.5×10^8 colony forming units (CFU) per mL of suspension. The suspension was diluted 1:10 in saline (i.e. 0.5 mL suspension+4.5 mL saline) to get a bacterial population of 1.5×10^7 CFU/mL as inoculum. […] The inoculated petridishes were incubated at 35° C. in an ambient atmosphere for 16-20 h.

[2] = tested on: C. sedlakii 12303; test: MIC, Agar Dilution Method; format: cell-based; settings: inhibitor 1 μg/mL
Method: as §1, §2, §3

[3] = tested on: E. coli 10001; test: MIC, Agar Dilution Method; format: cell-based; settings: strain 10001 (uncharacterized-ESBL clinical strain); inhibitor 1 μg/mL
Method: as §1, §2, §3

[4] = tested on: E. coli 10003; test: MIC, Agar Dilution Method; format: cell-based; settings: inhibitor 1 μg/mL
Method: as §1, §2, §3

[5] = tested on: E. coli 10004; test: MIC, Agar Dilution Method; format: cell-based; settings: inhibitor 1 μg/mL
Method: as §1, §2, §3

[6] = tested on: E. coli MRO 10006; test: MIC, Agar Dilution Method; format: cell-based; settings: strain 10006 (uncharacterized-ESBL clinical strain); inhibitor 1 μg/mL
Method: as §1, §2, §3

[7] = tested on: K. pneumoniae 11006; test: MIC, Agar Dilution Method; format: cell-based; settings: strain 11006 (uncharacterized-ESBL clinical strain); inhibitor 1 μg/mL
Method: as §1, §2, §3

[8] = tested on: K. pneumoniae 11009; test: MIC, Agar Dilution Method; format: cell-based; settings: strain 11009 (uncharacterized-ESBL clinical strain); inhibitor 1 μg/mL
Method: as §1, §2, §3

[9] = tested on: K. pneumoniae 11010; test: MIC, Agar Dilution Method; format: cell-based; settings: inhibitor 1 μg/mL
Method: as §1, §2, §3

[10] = tested on: K. pneumoniae MRO 11007; test: MIC, Agar Dilution Method; format: cell-based; settings: strain 11007 (uncharacterized-ESBL clinical strain); inhibitor 1 μg/mL
Method: as §1, §2, §3

[11] = tested on: M. catarrhalis ATCC 43617; test: MIC, Agar Dilution Method; format: cell-based; settings: inhibitor 1 μg/mL
Method: as §1, §2, §3

[12] = tested on: M. catarrhalis ATCC 43627; test: MIC, Agar Dilution Method; format: cell-based; settings: inhibitor 1 μg/mL
Method: as §1, §2, §3

[13] = tested on: P. aeruginosa 15020; test: MIC, Agar Dilution Method; format: cell-based; settings: inhibitor 1 μg/mL
Method: as §1, §2, §3

[14] = tested on: P. aeruginosa 15021; test: MIC, Agar Dilution Method; format: cell-based; settings: inhibitor 1 μg/mL
Method: as §1, §2, §3

[15] = tested on: S. odonifera 13801; test: MIC, Agar Dilution Method; format: cell-based; settings: inhibitor 1 μg/mL
Method: as §1, §2, §3

[16] = tested on: E. coli BAA-196 (TEM-10); test: MIC, Agar Dilution Method, ESBL producing ATCC isolate; format: cell-based
Method: as §1, §2, §3

[17] = tested on: E. coli BAA-197 (TEM-12); test: as above; format: cell-based
Method: as §1, §2, §3

[18] = tested on: E. coli BAA-198 (TEM-26); test: as above; format: cell-based
Method: as §1, §2, §3

[19] = tested on: E. coli BAA-199 (SHV-3); test: as above; format: cell-based; settings: E. coli BAA-199, SHV-3
Method: as §1, §2, §3

[20] = tested on: E. coli BAA-200 (SHV-4); test: as above; format: cell-based; settings: E. coli BAA-200, SHV-4
Method: as §1, §2, §3

[21] = tested on: E. coli BAA-201 (TEM-3); test: as above; format: cell-based
Method: as §1, §2, §3

[22] = tested on: E. coli BAA-202 (SHV-1); test: as above; format: cell-based
Method: as §1, §2, §3

[23] = tested on: K. pneumoniae 51503 (TEM-10 & -12); test: as above; format: cell-based
Method: as §1, §2, §3

[24] = tested on: P. mirabilis BAA-663 (TEM-89); test: as above; format: cell-based
Method: as §1, §2, §3

[25] = tested on: A. baumani MRO 14512; test: MIC, Agar Dilution Method, resistant clinical isolate; format: cell-based; settings: Pip + 4 μg/mL inhibitor
Method: as §1, §2, §3

[26] = tested on: A. baumani MRO 14514; test: as above; format: cell-based; settings: Pip + 4 μg/mL inhibitor
Method: as §1, §2, §3

[27] = tested on: A. baumani MRO 14515; test: as above; format: cell-based; settings: Pip + 4 μg/mL inhibitor
Method: as §1, §2, §3

[28] = tested on: E. coli MRO 10135; test: as above; format: cell-based; settings: Pip + 4 μg/mL inhibitor
Method: as §1, §2, §3

[29] = Minimum bactericidal studies, broth macrodilution; format: cell-based
Method: Minimum bactericidal studies were performed by broth macrodilution technique as described by NCCLS.

[30] = Intravenous pharmacokinetics in mice; format: in vivo, Swiss mice; settings: mouse, in vivo, iv
Text: Blood samples were collected at different time points. These samples were processed and analyzed by HPLC.

[31] = tested on: ESBLs types SHV-3 and SHV-4; settings: Bryson and Brogden, 1994; cited from earlier work

C[C@]1(Cn2ccnn2)[C@H](C(=O)O)N2C(=O)C[C@H]2S1(=O)=O [Tazo]
16 µg/mL: MIC of Piperacillin with Tazo or compounds described herein at 1 μg/mL [1] | MIC of Piperacillin with Tazo or compounds described herein at 1 μg/mL [3] | MIC of Piperacillin with Tazo or compounds described herein at 1 μg/mL [5] | MIC of Piperacillin with Tazo or compounds described herein at 1 μg/mL [8] | MIC of Piperacillin with different concentrations of Tazo or compound of Example 1 ([16]; inhibitor 2 μg/mL) | MIC of Piperacillin with different concentrations of Tazo or compound of Example 1 ([23]; inhibitor 4 μg/mL)
>128 µg/mL: MIC of Piperacillin with Tazo or compounds described herein at 1 μg/mL [10] | MIC of Piperacillin with different concentrations of Tazo or compound of Example 1 ([19]; inhibitor 1 μg/mL) | MIC of Piperacillin with different concentrations of Tazo or compound of Example 1 ([19]; inhibitor 2 μg/mL) | MIC of Piperacillin with different concentrations of Tazo or compound of Example 1 ([19]; inhibitor 4 μg/mL) | MIC of Piperacillin with different concentrations of Tazo or compound of Example 1 ([20]; inhibitor 1 μg/mL) | MIC of Piperacillin with different concentrations of Tazo or compound of Example 1 ([20]; inhibitor 2 μg/mL) | MIC of Piperacillin with different concentrations of Tazo or compound of Example 1 ([22]; inhibitor 1 μg/mL) | MIC of Piperacillin with different concentrations of Tazo or compound of Example 1 ([22]; inhibitor 2 μg/mL) | MIC of Piperacillin with different concentrations of Tazo or compound of Example 1 ([22]; inhibitor 4 μg/mL) | MIC of Piperacillin with different concentrations of Tazo or compound of Example 1 ([23]; inhibitor 1 μg/mL) | MIC of Piperacillin with different concentrations of Tazo or compound of Example 1 ([23]; inhibitor 2 μg/mL) | MIC of Piperacillin in combination with 4 μg/mL inhibitor [28]
128 µg/mL: MIC of Piperacillin in combination with 4 μg/mL inhibitor [27]
4 µg/mL: MIC of Piperacillin with different concentrations of Tazo or compound of Example 1 ([16]; inhibitor 4 μg/mL) | MIC of Piperacillin with different concentrations of Tazo or compound of Example 1 ([17]; inhibitor 4 μg/mL) | MIC of Piperacillin with different concentrations of Tazo or compound of Example 1 ([18]; inhibitor 1 μg/mL) | MIC of Piperacillin with different concentrations of Tazo or compound of Example 1 ([18]; inhibitor 2 μg/mL) | MIC of Piperacillin with different concentrations of Tazo or compound of Example 1 ([18]; inhibitor 4 μg/mL) | MIC of Piperacillin with different concentrations of Tazo or compound of Example 1 ([20]; inhibitor 4 μg/mL) | MIC of Piperacillin with different concentrations of Tazo or compound of Example 1 ([21]; inhibitor 1 μg/mL) | MIC of Piperacillin with different concentrations of Tazo or compound of Example 1 ([21]; inhibitor 2 μg/mL) | MIC of Piperacillin with different concentrations of Tazo or compound of Example 1 ([24]; inhibitor 4 μg/mL)
<0.25 µg/mL: MIC of Piperacillin with Tazo or compounds described herein at 1 μg/mL [11] | MIC of Piperacillin with Tazo or compounds described herein at 1 μg/mL [12]
8 µg/mL: MIC of Piperacillin with different concentrations of Tazo or compound of Example 1 ([17]; inhibitor 2 μg/mL) | MIC of Piperacillin with different concentrations of Tazo or compound of Example 1 ([24]; inhibitor 1 μg/mL) | MIC of Piperacillin with different concentrations of Tazo or compound of Example 1 ([24]; inhibitor 2 μg/mL)
32 µg/mL: MIC of Piperacillin with Tazo or compounds described herein at 1 μg/mL [4] | MIC of Piperacillin with Tazo or compounds described herein at 1 μg/mL [7] | MIC of Piperacillin with Tazo or compounds described herein at 1 μg/mL [14]
2 µg/mL: MIC of Piperacillin with Tazo or compounds described herein at 1 μg/mL [6] | MIC of Piperacillin with Tazo or compounds described herein at 1 μg/mL [9] | MIC of Piperacillin with Tazo or compounds described herein at 1 μg/mL [15] | MIC of Piperacillin with different concentrations of Tazo or compound of Example 1 ([21]; inhibitor 4 μg/mL)
inactive: activity against ESBLs types SHV-3 and SHV-4 [31]
bacteriostatic: Minimum bactericidal concentration study, Piperacillin in combination with inhibitor [29]
16.1 min: Elimination half-life [30]
64 µg/mL: MIC of Piperacillin with Tazo or compounds described herein at 1 μg/mL [13] | MIC of Piperacillin with different concentrations of Tazo or compound of Example 1 ([16]; inhibitor 1 μg/mL) | MIC of Piperacillin with different concentrations of Tazo or compound of Example 1 ([17]; inhibitor 1 μg/mL) | MIC of Piperacillin in combination with 4 μg/mL inhibitor [25] | MIC of Piperacillin in combination with 4 μg/mL inhibitor [26]
1 µg/mL: MIC of Piperacillin with Tazo or compounds described herein at 1 μg/mL [2]
